Measured values published in patent US20240307426A1, “USE OF SGLT-2 INHIBITORS FOR THE PREVENTION AND/OR TREATMENT OF RENAL DISEASES IN NON-HUMAN MAMMALS” (BOEHRINGER INGELHEIM VETMEDICA GMBH, priority 2021, published 2024).

Tested on: cats with chronic kidney disease (CKD)
Assay: Exploratory clinical field trial in cats with CKD (Example 3)
Format: in vivo, cat
Set-up: key to IRIS Stage (based on serum creatinine level) / IRIS Stage (based on creatinine level) / IRIS Stage (based on the creatinine level): IRIS CKD stage assigned from serum creatinine (IRIS 2019)
Settings: for Phosphorus: ref 0.8-2.2; for Serum creatinine: ref 0.9-2.3; for Potassium: ref 3.3-5.8; for Hematocrit: ref 28.2-52.7; for UPC: ref <0.33
Procedure: The clinical trial was conducted at three animal clinics. Overall, 9 cats with chronic kidney disease (CKD) were included in the study and treated once daily orally with 1 mg/kg bodyweight velagliflozin for up to 150 days (depending on the time of enrollment).
Diagnosis of CKD was based on two measurements of serum creatinine concentration at least 2 weeks apart from each other (historical value and screening, and value at screening in fasted cats), as recommended by the International Renal Interest Society (IRIS 2019). In order to qualify for enrollment, serum creatinine levels needed to be ≥2.2 mg/dL, but <5.0 mg/dL.
Disease staging throughout the study was performed based on serum creatinine levels in accordance with the IRIS CKD staging (IRIS 2019).
All other cats were treated for >90 days had at least data for two time points under treatment available and were therefore evaluated. Progression of the disease, as well as IRIS staging in this study was based on the most reliable biomarker: serum creatinine.

[1] = case 200-004, Visit 3 (Day 143), 1 mg/kg po once daily
[2] = case 200-004, screening visit (before treatment)
[3] = case 200-005, 1 mg/kg po once daily
[4] = case 200-005, 1 mg/kg po once daily, whole study
[5] = case 200-005, Visit 1 (Day 30), 1 mg/kg po once daily
[6] = case 200-005, Visit 2 (Day 90), 1 mg/kg po once daily
[7] = case 200-005, Visit 3 (Day 128), 1 mg/kg po once daily
[8] = case 200-005, screening visit (before treatment)
[9] = case 200-006, 1 mg/kg po once daily
[10] = case 200-006, 1 mg/kg po once daily, whole study
[11] = case 200-006, Visit 1 (Day 30), 1 mg/kg po once daily
[12] = case 200-006, Visit 2 (Day 90), 1 mg/kg po once daily

For `N#Cc1ccc([C@@H]2O[C@H](CO)[C@@H](O)[C@H](O)[C@H]2O)cc1Cc1ccc(C2CC2)cc1` [velagliflozin, Velagliflozin], the “Owner assessment of the appetite” value [1] was “normal”, the “Owner assessment of the drinking behavior” value [1] was “normal” and the Systolic blood pressure [1] was 148.7 mmHg. For the same molecule, the Phosphorus [1] was 1.2 mmol/L, the Serum creatinine [1] was 2.6 mg/dL and the Potassium [1] was 4.9 mmol/L. For the same molecule, the Hematocrit [1] was 34.8%, the BUN [2] was 46 mg/dL and the “IRIS Stage (based on serum creatinine level)” value [2] was 3. For the same molecule, the “Owner assessment - quality of life” value [2] was “very good”, the “Owner assessment of the appetite” value [2] was “normal” and the “Owner assessment of the drinking behavior” value [2] was “normal”. It also gave a Systolic blood pressure [2] of 130.7 mmHg, a Phosphorus [2] of 1.2 mmol/L and a Serum creatinine [2] of 2.9 mg/dL. It also gave a Potassium [2] of 4.9 mmol/L, a Hematocrit [2] of 33.4% and a UPC [2] of 0.1. For the same molecule, the “Quality of life according to the owner” value [3] was “good”, the adverse events [3] was “No adverse event was reported” and the expected glucosuric effect [3] was “confirmed”. The “Serum potassium levels (course)” value [4] was “remained stable”, the “UPC ratio (remained at)” value [4] was 0.1 and the “appetite and drinking behavior (course)” value [4] was “remained normal”. For the same molecule, the “condition (clinical signs and biochemical parameters)” value [4] was “stabilization of the condition”, the “course of BUN” value [4] was “remained stable” and the “course of serum creatinine” value [4] was “decreased”. For the same molecule, the total urine protein [4] was “reduced”, the BUN [5] was 37 mg/dL and the “IRIS Stage (based on the creatinine level)” value [5] was 2. For the same molecule, the “Owner assessment - quality of life” value [5] was “very good”, the “Owner assessment of the appetite” value [5] was “normal” and the “Owner assessment of the drinking behavior” value [5] was “normal”. For the same molecule, the Systolic blood pressure [5] was 148.0 mmHg, the Phosphorus [5] was 1.0 mmol/L and the Serum creatinine [5] was 2.0 mg/dL. For the same molecule, the Potassium [5] was 4.0 mmol/L, the Hematocrit [5] was 45.1% and the BUN [6] was 32 mg/dL. For the same molecule, the “IRIS Stage (based on the creatinine level)” value [6] was 2, the “Owner assessment - quality of life” value [6] was “good” and the “Owner assessment of the appetite” value [6] was “normal”. For the same molecule, the “Owner assessment of the drinking behavior” value [6] was “normal”, the Systolic blood pressure [6] was 130.0 mmHg and the Phosphorus [6] was 1.3 mmol/L. The Serum creatinine [6] was 1.9 mg/dL, the Potassium [6] was 3.9 mmol/L and the Hematocrit [6] was 39.2%. For the same molecule, the UPC [6] was 0.1, the BUN [7] was 37 mg/dL and the “IRIS Stage (based on the creatinine level)” value [7] was 2. The “Owner assessment - quality of life” value [7] was “good”, the “Owner assessment of the appetite” value [7] was “normal” and the “Owner assessment of the drinking behavior” value [7] was “normal”. The Systolic blood pressure [7] was 123.3 mmHg, the Phosphorus [7] was 1.1 mmol/L and the Serum creatinine [7] was 1.9 mg/dL. It also gave a Potassium [7] of 4.0 mmol/L, a Hematocrit [7] of 40.4% and a BUN [8] of 37 mg/dL. For the same molecule, the “IRIS Stage (based on the creatinine level)” value [8] was 2, the “Owner assessment - quality of life” value [8] was “very good” and the “Owner assessment of the appetite” value [8] was “normal”. For the same molecule, the “Owner assessment of the drinking behavior” value [8] was “normal”, the Systolic blood pressure [8] was 139.3 mmHg and the Serum creatinine [8] was 2.2 mg/dL. The Potassium [8] was 4.9 mmol/L, the Hematocrit [8] was 42.3% and the UPC [8] was 0.1. For the same molecule, the adverse events [9] was “Three adverse events were reported: diarrhoea, vomitus as well as cystitis”, the expected glucosuric effect [9] was “confirmed” and the “Quality of life according to the owner (course)” value [10] was “remained good”. The “Serum creatinine and BUN (course)” value [10] was “remained stable”, the “Serum potassium levels (course)” value [10] was “remained within the reference range” and the “Total urine protein and UPC” value [10] was “remained within the reference range”. For the same molecule, the “appetite (course)” value [10] was “improved to normal”, the “condition (clinical signs and biochemical parameters)” value [10] was “stable condition” and the “drinking behavior (course)” value (case 200-006, 1 mg/kg po once daily, whole study, worsening potentially due to cystitis) was “improved to normal but worsened again to excessive”. The BUN [11] was 41 mg/dL, the “IRIS Stage (based on the creatinine level)” value [11] was 2 and the “Owner assessment - quality of life” value [11] was “good”. The “Owner assessment of the appetite” value [11] was “normal”, the “Owner assessment of the drinking behavior” value [11] was “normal” and the Systolic blood pressure [11] was 139.3 mmHg. The Phosphorus [11] was 1.9 mmol/L, the Serum creatinine [11] was 2.7 mg/dL and the Potassium [11] was 3.9 mmol/L. For the same molecule, the Hematocrit [11] was 38.1%, the BUN [12] was 30 mg/dL and the “IRIS Stage (based on the creatinine level)” value [12] was 2. The “Owner assessment - quality of life” value [12] was “good”, the “Owner assessment of the appetite” value [12] was “normal” and the “Owner assessment of the drinking behavior” value [12] was “excessive”.
